From patent US6835378B2, “Method and compositions for inhibiting thrombin-induced coagulation” (The Texas A&M University System University, priority 2001, dated 2004)
“Also recorded” adds a separate entry of the source.

Tests used:
[1] = target: T1, binding of rSdrG(50-597) to Fg (Staphylococcus epidermidis, UniProt Q9KI13); assay: ELISA: inhibition of rSdrG(50-597) binding to immobilized Fg by synthetic peptides; parameters: species or system S. epidermidis; conditions: for inhibition of rSdrG(50-597) binding to Fg: 50 nM rSdrG(50-597) pre-incubated with peptide 1 h
T1 construct: made in house; host or cells: E. coli Topp3
T1 sequence (Q9KI13 50-597): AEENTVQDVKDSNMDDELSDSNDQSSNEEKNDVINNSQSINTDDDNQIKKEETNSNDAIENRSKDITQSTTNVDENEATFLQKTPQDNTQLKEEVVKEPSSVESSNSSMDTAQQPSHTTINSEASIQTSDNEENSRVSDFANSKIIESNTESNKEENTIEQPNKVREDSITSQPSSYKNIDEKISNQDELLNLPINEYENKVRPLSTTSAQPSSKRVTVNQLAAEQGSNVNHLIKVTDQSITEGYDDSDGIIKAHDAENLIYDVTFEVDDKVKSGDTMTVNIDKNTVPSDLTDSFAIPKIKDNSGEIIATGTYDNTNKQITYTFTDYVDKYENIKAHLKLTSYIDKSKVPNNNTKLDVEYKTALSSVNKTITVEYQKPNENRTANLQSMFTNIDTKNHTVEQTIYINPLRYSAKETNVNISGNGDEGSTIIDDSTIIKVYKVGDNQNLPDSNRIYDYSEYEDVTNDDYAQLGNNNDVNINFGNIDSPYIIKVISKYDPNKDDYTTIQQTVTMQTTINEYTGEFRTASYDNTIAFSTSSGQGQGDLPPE
Description: ELISA—Microtiter plates (Immulon 4, Dynatech Laboratories Inc.) were coated with 1 μg of Fg (Enzyme Research Labs) in PBS, pH 7.5 for 18 h at 4° C. Plates were washed three times with PBS, 0.05% Tween 20 (PBST) and blocked with 1% (w/v) bovine serum albumin (BSA) for 1 h at room temperature. Plates were washed three times with PBST and rSdrG(50-597), diluted into PBS, was added to the wells and the plate was incubated for 1 h at room temperature. Plates were washed three times with PBST and bound rSdrG(50-597) was detected by adding a 1:2000 dilution of an anti-His-tag mAb (Clontech) in PBST, 0.1% BSA. Plates were incubated for 1 h at room temperature and then washed three times with PBST. A 1:2000 dilution of goat anti-mouse alkaline phosphatase (AP)-conjugated polyclonal antibodies (Bio-Rad) in PBST, 0.1% BSA were added to the wells and the plate was incubated for 1 h at room temperature. Plates were washed three times with PBST and developed with p-nitrophenyl phosphate (Sigma) in 1 M diethanolamine, 0.5 mM MgCl2, pH 9.0 at room temperature for ˜30 min. Plates were read at 405 nm using an ELISA plate reader (Thermomax microplate reader, Molecular Devices).
In the inhibition experiments, 50 nM rSdrG(50-597) in PBS was pre-incubated with the indicated amounts of selected peptides for 1 h at room temperature. The sample mixtures were added to the Fg-coated wells and bound rSdrG(50-597) was detected as described above.

rSdrG(50-597) = rSdrG(50-597) (Staphylococcus epidermidis, UniProt Q9KI13); conditions: increasing amounts of unlabeled peptide
Description: Fluorescence Polarization—Fluorescence polarization was used to determine the equilibrium dissociation constant (KD) for the interaction of rSdrG(50-597) with peptide β1-25. The peptide was labeled with fluorescein as previously described (18). Increasing concentrations of rSdrG(50-597) in PBS, pH 7.5, were incubated with 10 nM labeled peptide for 3 h in the dark at room temperature. Reactions were allowed to reach equilibrium. Polarization measurements were taken with a Luminescence Spectrometer LS50B (Perkin Elmer) using FL WinLab software (Perkin Elmer). Binding data was analyzed by nonlinear regression used to fit a binding function as defined by the following equation: [formula]
Determination of Equilibrium Dissociation Constants (KD)—An equilibrium dissociation constant (KD) for the interaction of rSdrG(50-597) with the Fg Bβ chain peptide β1-25 was determined.

[2] = in vivo; cited from earlier work

Row | Substance | inhibition of rSdrG(50-597) binding to Fg [1] | further results
1 | ADSEGEGDFLAEGGGVR (listed as Staphylococcus epidermidis) [FpA] | essentially inactive | –
2 | FSARGHRPLD [β11-20] | essentially inactive | –
3 | FSERKDLHQGEGNPREFVENDAKGR [β1-25S] | did not interfere | inhibition of rSdrG(50-597) binding to fluorescein-labeled β1-25 (rSdrG(50-597)): not
4 | NEEGFFSA RGHRPLD [β6-20] | Effective inhibition; also recorded: potent inhibitor | –
5 | NEEGFFSARGHRPLDKKREE [β6-25] | inhibit the binding of rSdrG(50-597) to Fg in a concentration dependent manner | –
6 | QGVNDNEEGFFSAR [FpB] | inhibited the binding of rSdrG(50-597) in a concentration dependent manner; also recorded: poor inhibitory activity | activity relative to peptide β1-25 (fold less active) ([1]; inhibition ELISA, FIG. 4C): at least 10 fold
7 | QGVNDNEEGFFSARGHRPLDKK REE [β1-25] | inhibit the binding of rSdrG(50-597) to Fg in a concentration dependent manner | inhibition of rSdrG(50-597) binding to fluorescein-labeled β1-25 (rSdrG(50-597)): inhibited binding
8 | heparin | – | major bleeding, patients [2]: 1-33%; thrombocytopenia, patients [2]: 1-5%
